Data: paper PMC11242993, “Evaluation of the Therapeutic Potential of Sulfonyl Urea Derivatives as Soluble Epoxide Hydrolase (sEH) Inhibitors” (Molecules, 2024)

What was measured:
human recombinant sEH = target: T1, human recombinant sEH (Homo sapiens, UniProt P34913); experiment: Fluorescence-based sEH activity assay (PHOME substrate), human enzyme; assay type: biochemical; details: for IC50: dose-dependent assay, read-out: Human sEH Inhibition IC50
T1 construct: purchased Cayman Chemical 10011671
T1 sequence (P34913 1-555): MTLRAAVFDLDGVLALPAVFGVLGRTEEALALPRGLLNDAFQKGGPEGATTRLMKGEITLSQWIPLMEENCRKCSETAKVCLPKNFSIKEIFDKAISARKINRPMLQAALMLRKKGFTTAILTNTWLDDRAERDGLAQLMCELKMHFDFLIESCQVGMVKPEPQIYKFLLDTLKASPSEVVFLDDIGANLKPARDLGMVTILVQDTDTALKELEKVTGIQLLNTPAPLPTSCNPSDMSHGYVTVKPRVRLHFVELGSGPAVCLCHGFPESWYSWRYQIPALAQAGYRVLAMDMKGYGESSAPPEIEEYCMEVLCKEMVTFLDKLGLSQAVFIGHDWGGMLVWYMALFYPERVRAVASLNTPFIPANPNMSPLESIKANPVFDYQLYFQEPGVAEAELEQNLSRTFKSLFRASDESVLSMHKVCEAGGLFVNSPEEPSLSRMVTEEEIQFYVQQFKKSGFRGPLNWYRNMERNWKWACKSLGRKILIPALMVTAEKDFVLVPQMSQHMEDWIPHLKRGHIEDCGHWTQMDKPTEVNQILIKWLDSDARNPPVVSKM
Procedure: A fluorescence-based sEH activity assay provided a convenient method for screening human epoxide hydrolase inhibitors. The assay utilized (3-Phenyl-oxiranyl)-acetic acid cyano-(6-methoxy-naphthalen-2-yl)-methyl ester (PHOME) as a substrate. […] The inhibitory function of the compounds on sEH activity was tested as detailed in the product manual from Cayman Chemical. Briefly, 3 mL sEH assay buffer (10×) was diluted with 27 mL HPLC-grade water. This final assay buffer, 25 mM bis-tris (pH 7.0), was used in the assay and for the dilution of the soluble epoxide hydrolase (sEH) enzyme. Amounts of 12 μL each of human and mouse recombinant sEH were thawed on ice. Prior to assaying, 588 μL cold assay buffer was added directly to the enzyme vial. An amount of 190 μL assay buffer and 5 μL solvent (40% DMSO in assay buffer) were added to the background wells. In the 100% initial activity wells, 185 μL assay buffer, 5 μL sEH, and 5 μL solvent were added. In inhibitor wells, 185 μL assay buffer, 5 μL solution of the synthesized compounds, and 5 μL of recombinant enzyme solution were added.
(§1) Average fluorescence (AF) of the background wells and 100% initial activity in the wells and of each of the inhibitors were determined. The background AF was subtracted from the 100% initial activity and inhibitor AFs. The % sEH activity is calculated as (inhbitited AF/% 100 initial activity) × 100.
(§2) Multiple concentrations of the inhibitors were tested followed by plotting of the percent activity as a function of inhibitor concentration to determine the IC50 values.

mouse recombinant sEH = target: T2, mouse recombinant sEH (Mus musculus, UniProt P34914); experiment: Fluorescence-based sEH activity assay (PHOME substrate), mouse enzyme; assay type: biochemical; details: dose-dependent assay; read-out: Mouse sEH Inhibition IC50
T2 sequence (P34914 1-554): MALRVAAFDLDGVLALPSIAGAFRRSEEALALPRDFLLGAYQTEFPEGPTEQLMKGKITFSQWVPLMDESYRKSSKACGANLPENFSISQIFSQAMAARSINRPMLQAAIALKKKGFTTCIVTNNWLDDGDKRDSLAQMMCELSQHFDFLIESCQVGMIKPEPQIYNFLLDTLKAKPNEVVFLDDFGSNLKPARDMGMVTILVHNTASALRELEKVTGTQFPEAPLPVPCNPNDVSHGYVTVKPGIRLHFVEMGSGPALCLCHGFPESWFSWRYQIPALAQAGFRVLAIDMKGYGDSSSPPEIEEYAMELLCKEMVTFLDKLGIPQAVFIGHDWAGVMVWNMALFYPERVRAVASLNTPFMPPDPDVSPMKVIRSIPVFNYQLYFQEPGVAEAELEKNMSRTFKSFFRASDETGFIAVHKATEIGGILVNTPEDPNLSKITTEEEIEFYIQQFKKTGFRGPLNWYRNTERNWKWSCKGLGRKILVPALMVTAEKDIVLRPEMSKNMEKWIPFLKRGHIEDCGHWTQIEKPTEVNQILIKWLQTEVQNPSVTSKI
Procedure: A fluorescence-based sEH activity assay provided a convenient method for screening human epoxide hydrolase inhibitors. The assay utilized (3-Phenyl-oxiranyl)-acetic acid cyano-(6-methoxy-naphthalen-2-yl)-methyl ester (PHOME) as a substrate. […] The inhibitory function of the compounds on sEH activity was tested as detailed in the product manual from Cayman Chemical. Briefly, 3 mL sEH assay buffer (10×) was diluted with 27 mL HPLC-grade water. This final assay buffer, 25 mM bis-tris (pH 7.0), was used in the assay and for the dilution of the soluble epoxide hydrolase (sEH) enzyme. Amounts of 12 μL each of human and mouse recombinant sEH were thawed on ice. Prior to assaying, 588 μL cold assay buffer was added directly to the enzyme vial. An amount of 190 μL assay buffer and 5 μL solvent (40% DMSO in assay buffer) were added to the background wells. In the 100% initial activity wells, 185 μL assay buffer, 5 μL sEH, and 5 μL solvent were added. In inhibitor wells, 185 μL assay buffer, 5 μL solution of the synthesized compounds, and 5 μL of recombinant enzyme solution were added. To start the reaction, 5 μL of PHOME was added to each well at a final concentration of 0.25 mM. The microwell plate was shaken carefully for 10 s and covered with a plate cover.
as §1, §2

SMILES | Human sEH % Inhibition (human recombinant sEH) [%] | IC50 (human recombinant sEH) [µM] | IC50 (mouse recombinant sEH) [µM] | human sEH inhibitory activity (in words) (human recombinant sEH)
O=C(NC12CC3CC(CC(C3)C1)C2)NS(=O)(=O)c1ccc(C(F)(F)F)cc1 [Compound 4c, N-((adamantan-1-yl)carbamoyl)-4-(trifluoromethyl)benzenesulfonamide] | 34.06 | – | – | –
CC(C)(C)c1ccc(S(=O)(=O)NC(=S)NC23CC4CC(CC(C4)C2)C3)cc1 [Compound 6b, N-((adamantan-1-yl)carbamothioyl)-4-(tert-butyl)benzenesulfonamide] | 1.80 | – | – | –
CNN/C(=N\S(=O)(=O)c1ccc(OC(F)(F)F)cc1)NC12CC3CC(CC(C3)C1)C2 [Compound 9b] | 9.83 | – | – | –
COc1ccc(S(=O)(=O)NC(=O)NC23CC4CC(CC(C4)C2)C3)cc1 [Compound 4e] | 95.39 | 0.00294 | > 1 | –
N/C(=N\S(=O)(=O)c1ccc(OC(F)(F)F)cc1)NC12CC3CC(CC(C3)C1)C2 [Compound 8a] | 40.19 | – | – | –
O=C(NC12CC3CC(CC(C3)C1)C2)NS(=O)(=O)c1ccc(Cl)cc1 [Compound 4k] | 96.47 | 0.002 | > 1 | –
O=S(=O)(NC(=S)NC12CC3CC(CC(C3)C1)C2)c1ccccc1 [Compound 6a, N-((adamantan-1-yl)carbamothioyl)benzenesulfonamide] | 84.56 | 0.13 | > 1 | –
CN(C)N/C(=N\S(=O)(=O)c1ccc(OC(F)(F)F)cc1)NC12CC3CC(CC(C3)C1)C2 [Compound 9d] | 7.65 | – | – | –
O=C(NC1C2CC3CC(C2)CC1C3)NS(=O)(=O)c1ccc(OC(F)(F)F)cc1 (stereo not shown) [Compound 12, N-((adamantan-2-yl)carbamoyl)-4-(trifluoromethoxy)benzenesulfonamide] | 34.53 | – | – | none of them showed any activity
O=C(NC12CC3CC(CC(C3)C1)C2)NS(=O)(=O)c1ccc(F)cc1 [Compound 4j] | 85.26 | 0.12 | > 1 | –
N#Cc1ccc(S(=O)(=O)NC(=O)NC23CC4CC(CC(C4)C2)C3)cc1 [Compound 4i, N-((adamantan-1-yl)carbamoyl)-4-cyanobenzenesulfonamide] | 19.36 | – | – | –
O=C(NC1CCCCC1)NS(=O)(=O)c1ccc(OC(F)(F)F)cc1 [Compound 14, N-(cyclohexylcarbamoyl)-4-(trifluoromethoxy)benzenesulfonamide] | 32.26 | – | – | none of them showed any activity
O=C(NC12CC(C1)C2)NS(=O)(=O)c1ccc(OC(F)(F)F)cc1 [Compound 11a, N-(bicyclo [1.1.1]pentan-1-ylcarbamoyl)-4-(trifluoromethoxy)benzenesulfonamide] | 4.28 | – | – | –
CC(C)(C)OC(=O)N1CCC(NC(=O)NS(=O)(=O)c2ccc(OC(F)(F)F)cc2)CC1 [Compound 16, tert-butyl 4-(3-((4-(trifluoromethoxy)phenyl)sulfonyl)ureido)piperidine-1-carboxylate] | 23.03 | – | – | none of them showed any activity
CC(C)(C)c1ccc(S(=O)(=O)NC(=O)NC23CC4CC(CC(C4)C2)C3)cc1 [Compound 4d] | 32.7 | – | – | –
O=C(NC12CC(F)(C1)C2)NS(=O)(=O)c1ccc(OC(F)(F)F)cc1 [Compound 11c, N-((3-fluorobicyclo [1.1.1]pentan-1-yl)carbamoyl)-4-(trifluoromethoxy)benzenesulfonamide] | 1.67 | – | – | –
O=S(=O)(/N=C(\NNc1ccccc1)NC12CC3CC(CC(C3)C1)C2)c1ccc(OC(F)(F)F)cc1 [Compound 9c] | 4.71 | – | – | –
CS/C(=N\S(=O)(=O)c1ccc(OC(F)(F)F)cc1)NC12CC3CC(CC(C3)C1)C2 [Compound 7] | 32.83 | – | – | –
Cc1ccc(S(=O)(=O)NC(=O)NC23CC4CC(CC(O)(C4)C2)C3)cc1 [Compound 10a, N-((3-hydroxyadamantan-1-yl)carbamoyl)-4-methylbenzenesulfonamide] | 22.47 | – | – | –
O=C(NS(=O)(=O)c1ccc(OC(F)(F)F)cc1)N1CCC(C(F)(F)F)CC1 [Compound 13, N-((4-(trifluoromethoxy)phenyl)sulfonyl)-4-(trifluoromethyl)piperidine-1-carboxamide] | 2.75 | – | – | none of them showed any activity
O=C(NC12CC3CC(CC(O)(C3)C1)C2)NS(=O)(=O)c1ccc(C(F)(F)F)cc1 [Compound 10b, N-((-3-hydroxyadamantan-1-yl)carbamoyl)-4-(trifluoromethyl)benzenesulfonamide] | 21.26 | – | – | –
CC(C)(C)c1ccc(S(=O)(=O)NC(=O)NC23CC4CC(CC(O)(C4)C2)C3)cc1 [Compound 10c, 4-(tert-butyl)-N-((-3-hydroxyadamantan-1-yl)carbamoyl)benzenesulfonamide] | 3.08 | – | – | –
O=C(NC1CCNCC1)NS(=O)(=O)c1ccc(OC(F)(F)F)cc1 [Compound 17, N-(piperidin-4-ylcarbamoyl)-4-(trifluoromethoxy)benzenesulfonamide] | 32.02 | – | – | none of them showed any activity
O=C(NC12CC3CC(CC(C3)C1)C2)NS(=O)(=O)c1cccc(OC(F)(F)F)c1 [Compound 4g, N-((adamantan-1-yl)carbamoyl)-3-(trifluoromethoxy)benzenesulfonamide] | 1.65 | – | – | sEH inhibition decreased to a significant extent
CN/C(=N\S(=O)(=O)c1ccc(OC(F)(F)F)cc1)NC12CC3CC(CC(C3)C1)C2 [Compound 8b] | 13.06 | – | – | –
COc1ccc(S(=O)(=O)NC(=S)NC23CC4CC(CC(C4)C2)C3)cc1 [Compound 6c, N-((adamantan-1-yl)carbamothioyl)-4-methoxybenzenesulfonamide] | 2.50 | – | – | –
N#CC12CC(NC(=O)NS(=O)(=O)c3ccc(OC(F)(F)F)cc3)(C1)C2 [Compound 11b, N-((3-cyanobicyclo [1.1.1]pentan-1-yl)carbamoyl)-4-(trifluoromethoxy)benzenesulfonamide] | 7.47 | – | – | –
O=C(NC12CC3CC(CC(C3)C1)C2)NS(=O)(=O)c1ccccc1OC(F)(F)F [Compound 4h, N-((adamantan-1-yl)carbamoyl)-2-(trifluoromethoxy)benzenesulfonamide] | 6.28 | – | – | sEH inhibition decreased to a significant extent
